Measured values: patent publication US9593146B2, “CD44v6-derived peptides for treating metastasizing cancer” (AMCURE GMBH, priority 2012, dated 2017)

Experiments:
Met = assay: HGF induced activation of Met and Erk in L3.6pl, HeLa and HT29 cells; type: cell-based, human; conditions: added before induction with HGF
Protocol: FIG. 14: A: Activation of Met and signal transduction induced by HGF depends on CD44v6 in L3.6pl cells. L3.6pl cells were treated with the human v6 peptide (human v6 14mer) or the rat v6 peptide as control prior to induction with 10 ng/ml HGF. Activation of Met and ERK was determined in western blot. The numbers refer to the fold induction. The experiment was repeated at least 5 times. B: Activation of c-Met and signal transduction induced by HGF depends on CD44v6 HeLa cells. Starved HeLa cells respectively HT29 cells were incubated with the v6 peptide (human v6 14mer) or a control peptide for 10 minutes at 37° C. and then induced with 25 ng/ml of HGF for the indicated time points. Cells were then either lysed and the lysates were subjected to Western Blot analysis for phospho-Met and Met. C: Activation of c-Met and signal transduction induced by HGF depends on CD44v6 in HT29 cells. HGF-induced c-Met and Erk phosphorylation in HT29 was determined as described above using phospho-specific antibodies. […]
The contribution of CD44v6 to Met signaling in the human epithelial pancreatic cancer cells L3.6pl (derived from Colo 357), the cervix carcinoma cells HeLa and the colon cancer cells HT29 were analysed using the CD44v6 peptide (v6 14mer; v6 5mer tested as well, data not shown).

HUVEC = assay: Angiogenic response of HUVECs to angiogenic Langerhans islets; type: cell-based, human; conditions: HUVEC/collagen co-culture with islets, 5 to 7 days
Protocol: FIG. 20: The response of HUVECs to a mixture of angiogenic factors produced by angiogenic Langerhans islets can be reduced by CD44v6 specific inhibitors. HUVEC cells were mixed with CD44v6 antibody, CD44v6 peptide or control peptide and then suspended in a collagen gel. Hyperplastic angiogenic Langerhans islets isolated from the pancreas of 8-9 week old RIP1Tag2 mice were placed on top of the HUVEC/collagen mixture and overlaid with medium. Every third day new antibody or peptide was added and pictures were taken after 5 to 7 days. The number of islets that induced an angiogenic response of the ECs is given as percentage of all analysed islets. For quantification 60 islets per condition were analysed. Both the CD44v6 antibody and the CD44v6 peptide (human v6 14mer) reduced the angiogenic response, and the reduction obtained with the antibody is significant (p<0.05).
Langerhans islets are able to stimulate an angiogenic response when co-cultured with HUVEC cells in a collagen matrix. Such angiogenic hyperplastic islets of Langerhans were isolated by collagenase perfusion. They produce a mixture of angiogenic factors and thereby attract the ECs to get organised in capillary like structures. […] In agreement with published data around 60% of islets stimulated an angiogenic response in the control experiment (FIG. 20).

ErbB receptors = assay: EGF / TGFα induced Erk phosphorylation in MCF7; type: cell-based, human; conditions: 100 ng/ml peptide
4T1 cells = assay: Syngeneic orthotopic 4T1 mammary carcinoma model in BALB/c mice; type: in vivo
Protocol: FIG. 26: Treatment with the v6 14mer reduces growth of the primary tumor and macroscopic metastases formation in the lung. 1×10^6 murine 4T1 cells per mouse were diluted in 50 μl RPMI plus 50 μl Matrigel and injected into the 6th mammary fat pad of 10 female BALB/c mice. One week after the injection, the mice were either injected intraperitoneally with 20 μg of the murine v6 14mer dissolved in 100 μl PBS or with 20 μg of control peptide (rat v6 14mer) dissolved in 100 μl PBS. The injection was performed 3 times per week for two weeks. After 2 weeks the mice were sacrificed and the primary tumors and the lungs were extracted. A: Overall reduction of the tumor volume in the v6 peptide treated group. B: Immunofluorescent staining for the endothelial marker CD34 to monitor vascularization of the primary tumor. Graphic representation of the reduction of the total vessel area. C: The v6 peptides led to a reduction in macroscopic lung metastasis. The black arrows mark examples for metastases. The scale bar corresponds to a size of 1 cm. Statistical evaluation of the average number of lung metastases. Significance was calculated using Student's t test: p*<0.01; **p<0.005. Each group consisted of 5 animals.
The effect of the CD44v6 14mer was tested in a syngeneic mouse model by orthotopic injection of the murine mammary carcinoma cells 4T1. 4T1 cells were originally derived from a spontaneously arising BALB/c mammary tumor. When introduced orthotopically, 4T1 cells grow rapidly at the primary site and form metastases in the lung and the lymph nodes within a period of 3-6 weeks. The tumor growth and metastatic spreading of 4T1 cells in BALB/c mice very closely mimics human breast cancer stage IV.
The 4T1 cells were injected orthotopically into the 6th mammary fat pad. Two groups of 5 animals each with the implanted tumor cells were then used for the experiment. One group was treated with the v6 14mer peptide, one with a control (rat) peptide. The injection of the peptide was performed 3 times per week and planned for three to four weeks but had to be stopped after two weeks as the control group suffered from large tumors.

hVEGF = assay: Human VEGF in cell culture supernatant of L3.6pl cells; type: cell-based; conditions: 200 ng/ml peptide in the culture medium, 5 days
Protocol: Determination of human HGF and VEGF levels in cell culture medium of L3.6pl cells were performed using the Quantikine Human HGF Immunoassay and Quantikine Human VEGF Immunoassay from Roche (Mannheim, GER) and R&D Systems (Wiesbaden, Germany). For this purpose 3×10^6 cells were cultured for 5 days in a 15 cm plate in the presence of the respective peptides as indicated. The supernatant (20 ml) was centrifuged (1200 rpm) and the assay was performed according to manufacturer's instructions.

HUVECs and HAOECs = assay: Scratch closure assay, EC migration; type: cell-based, human; conditions: 24 hours
Protocol: FIG. 18: CD44v6 is required for EC migration. HUVECs and HAOECs were grown to confluence and a wound was made into the cell monolayer with a sterile pipette tip. After washing the cells were incubated with the antibody against CD44v6, the CD44v6 peptide (human v614mer) or the control peptide as indicated. The ligands HGF, VEGF-A165 or VEGF-A121 were added and migration of the ECs was analysed after 24 hours. The numbers indicate the percentage of free area in the scratch area quantified by the computer program ImageJ.
In this assay the requirement for CD44v6 for cell migration was tested. In a scratch closure assay migration of either vein or artery ECs was tested. These cells were grown to confluence and a scratch was made into the confluent monolayer using a sterile pipette-tip. The cells lining the scratch border started to migrate into this empty space in order to close the gap. In presence of either HGF, VEGF-A165, or VEGF-A121 the cells migrated faster than in absence of the ligands and the scratch was closed within one day.

[1] = murine v6 14mer 20 μg i.p. 3 times per week for two weeks

## KEQWFGNRWHEGYR [human 14mer, human CD44v6 14mer peptide]
Met
  activation of Met and of its downstream target Erk: able to prevent activation of Met and of its downstream target Erk
HUVEC
  angiogenic response of the ECs: reduced
ErbB receptors; 20 ng/ml EGF (FIG. 16)
  Erk phosphorylation upon EGF treatment: blocking of Erk phosphorylation upon EGF treatment
ErbB receptors; 20 ng/ml TGFα (FIG. 16)
  Erk phosphorylation upon TGFα induction: not upon TGFα induction
4T1 cells; 20 μg i.p. 3 times per week for two weeks, 5 animals per group
  macroscopic lung metastases per animal: three animals showed no macroscopic metastases at all, whereas two animals had only one metastase
4T1 cells; [1]
  primary tumor size: significant decrease of tumor size
  total number of blood vessels (anti-CD34 staining): significantly reduced
hVEGF
  hVEGF secretion by L3.6pl cells: can be blocked
HUVECs and HAOECs
  EC migration induced by HGF, VEGF-A165 or VEGF-A121: reduced to basal levels
